Patent US20240301409A1, “Chemically Modified Small Activating RNA” (RACTIGEN THERAPEUTICS, priority 2021, published 2024)

Test system: T24 cells
Assay: Cellular proliferation assay (CCK8) in T24 cells, alone and combined with Mitomycin C or valrubicin
Assay type: cell-based, human
Outline: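 Cells transfected with saRNA RAG1-40-31 (0.1–50 nM) for 24 h, then Mitomycin C or valrubicin (1–10000 nM) added in paired concentrations; single-agent saRNA at 10 nM for 72 h. Viability by CCK8 absorbance at 450 nm after 1 h at 37 °C, as % of blank transfection control.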

RAG1-40-31: saRNA duplex: sense fCfCAACUCAUUCUCCAAG*U*C (SEQ ID NO 16); antisense U*A*fCfUfUGGAGAAfUGAGfUfUGG*fC*A (SEQ ID NO 12) (sense CCAACUCAUUCUCCAAGUC; antisense UACUUGGAGAAUGAGUUGGCA; 2'-F and phosphorothioate modifications; modified_base (1)..(2) (1,2)=2′-fluoro; modified_base (17)..(19) (17,18,19)=phosphorothioate (PS) backbone modification; modified_base (2)..(21) (2,3,19,20,21)=phosphorothioate (PS) backbone modification; modified_base (3)..(20) (3,4,5,12,16,17,20)=2′-fluoro)
Relative proliferation proportion of T24 cells (RAG1-40-31 0.1 nM + MMC 1 nM): 93.6% | Relative proliferation proportion of T24 cells (RAG1-40-31 0.1 nM + MMC 10 nM): 94.5% | Relative proliferation proportion of T24 cells (RAG1-40-31 0.1 nM + MMC 100 nM): 63.3% | Relative proliferation proportion of T24 cells (RAG1-40-31 0.1 nM + MMC 1000 nM): 17.6% | Relative proliferation proportion of T24 cells (RAG1-40-31 0.1 nM + MMC 10000 nM): 5.6% | Relative proliferation proportion of T24 cells (RAG1-40-31 0.1 nM + valrubicin 1 nm): 96.3% | Relative proliferation proportion of T24 cells (RAG1-40-31 0.1 nM + valrubicin 10 nm): 97.8% | Relative proliferation proportion of T24 cells (RAG1-40-31 0.1 nM + valrubicin 100 nm): 93.4% | Relative proliferation proportion of T24 cells (RAG1-40-31 0.1 nM + valrubicin 1000 nm): 59.6% | Relative proliferation proportion of T24 cells (RAG1-40-31 0.1 nM + valrubicin 10000 nm): 18.9% | Relative proliferation proportion of T24 cells (RAG1-40-31 0.1 nM, Control (no MMC)): 97.9% | Relative proliferation proportion of T24 cells (RAG1-40-31 0.1 nM, Control (no valrubicin)): 93.5% | Relative proliferation proportion of T24 cells (RAG1-40-31 0.5 nM + MMC 1 nM): 90.1% | Relative proliferation proportion of T24 cells (RAG1-40-31 0.5 nM + MMC 10 nM): 90.0% | Relative proliferation proportion of T24 cells (RAG1-40-31 0.5 nM + MMC 100 nM): 59.8% | Relative proliferation proportion of T24 cells (RAG1-40-31 0.5 nM + MMC 1000 nM): 16.8% | Relative proliferation proportion of T24 cells (RAG1-40-31 0.5 nM + MMC 10000 nM): 5.5% | Relative proliferation proportion of T24 cells (RAG1-40-31 0.5 nM + valrubicin 1 nm): 91.3% | Relative proliferation proportion of T24 cells (RAG1-40-31 0.5 nM + valrubicin 10 nm): 94.3% | Relative proliferation proportion of T24 cells (RAG1-40-31 0.5 nM + valrubicin 100 nm): 91.4% | Relative proliferation proportion of T24 cells (RAG1-40-31 0.5 nM + valrubicin 1000 nm): 51.8% | Relative proliferation proportion of T24 cells (RAG1-40-31 0.5 nM + valrubicin 10000 nm): 19.5% | Relative proliferation proportion of T24 cells (RAG1-40-31 0.5 nM, Control (no MMC)): 91.7% | Relative proliferation proportion of T24 cells (RAG1-40-31 0.5 nM, Control (no valrubicin)): 84.8% | Relative proliferation proportion of T24 cells (RAG1-40-31 1 nM + MMC 1 nM): 81.9% | Relative proliferation proportion of T24 cells (RAG1-40-31 1 nM + MMC 10 nM): 78.2% | Relative proliferation proportion of T24 cells (RAG1-40-31 1 nM + MMC 100 nM): 55.6% | Relative proliferation proportion of T24 cells (RAG1-40-31 1 nM + MMC 1000 nM): 14.7% | Relative proliferation proportion of T24 cells (RAG1-40-31 1 nM + MMC 10000 nM): 5.4% | Relative proliferation proportion of T24 cells (RAG1-40-31 1 nM + valrubicin 1 nm): 76.0% | Relative proliferation proportion of T24 cells (RAG1-40-31 1 nM + valrubicin 10 nm): 71.3% | Relative proliferation proportion of T24 cells (RAG1-40-31 1 nM + valrubicin 100 nm): 67.6% | Relative proliferation proportion of T24 cells (RAG1-40-31 1 nM + valrubicin 1000 nm): 49.6% | Relative proliferation proportion of T24 cells (RAG1-40-31 1 nM + valrubicin 10000 nm): 16.6% | Relative proliferation proportion of T24 cells (RAG1-40-31 1 nM, Control (no MMC)): 85.9% | Relative proliferation proportion of T24 cells (RAG1-40-31 1 nM, Control (no valrubicin)): 79.7% | Relative proliferation proportion of T24 cells (RAG1-40-31 5 nM + MMC 1 nM): 37.4% | Relative proliferation proportion of T24 cells (RAG1-40-31 5 nM + MMC 10 nM): 36.3% | Relative proliferation proportion of T24 cells (RAG1-40-31 5 nM + MMC 100 nM): 26.0% | Relative proliferation proportion of T24 cells (RAG1-40-31 5 nM + MMC 1000 nM): 7.7% | Relative proliferation proportion of T24 cells (RAG1-40-31 5 nM + MMC 10000 nM): 3.1% | Relative proliferation proportion of T24 cells (RAG1-40-31 5 nM + valrubicin 1 nm): 37.2% | Relative proliferation proportion of T24 cells (RAG1-40-31 5 nM + valrubicin 10 nm): 33.3% | Relative proliferation proportion of T24 cells (RAG1-40-31 5 nM + valrubicin 100 nm): 42.1% | Relative proliferation proportion of T24 cells (RAG1-40-31 5 nM + valrubicin 1000 nm): 25.7% | Relative proliferation proportion of T24 cells (RAG1-40-31 5 nM + valrubicin 10000 nm): 8.0% | Relative proliferation proportion of T24 cells (RAG1-40-31 5 nM, Control (no MMC)): 42.1% | Relative proliferation proportion of T24 cells (RAG1-40-31 5 nM, Control (no valrubicin)): 38.5% | Relative proliferation proportion of T24 cells (RAG1-40-31 10 nM + MMC 1 nM): 19.8% | Relative proliferation proportion of T24 cells (RAG1-40-31 10 nM + MMC 10 nM): 27.0% | Relative proliferation proportion of T24 cells (RAG1-40-31 10 nM + MMC 100 nM): 16.7% | Relative proliferation proportion of T24 cells (RAG1-40-31 10 nM + MMC 1000 nM): 5.3% | Relative proliferation proportion of T24 cells (RAG1-40-31 10 nM + MMC 10000 nM): 2.5% | Relative proliferation proportion of T24 cells (RAG1-40-31 10 nM + valrubicin 1 nm): 27.2% | Relative proliferation proportion of T24 cells (RAG1-40-31 10 nM + valrubicin 10 nm): 23.3% | Relative proliferation proportion of T24 cells (RAG1-40-31 10 nM + valrubicin 100 nm): 26.9% | Relative proliferation proportion of T24 cells (RAG1-40-31 10 nM + valrubicin 1000 nm): 21.7% | Relative proliferation proportion of T24 cells (RAG1-40-31 10 nM + valrubicin 10000 nm): 5.1% | Relative proliferation proportion of T24 cells (RAG1-40-31 10 nM, Control (no MMC)): 22.0% | Relative proliferation proportion of T24 cells (RAG1-40-31 10 nM, Control (no valrubicin)): 23.9% | Relative proliferation proportion of T24 cells (RAG1-40-31 25 nM + MMC 1 nM): 15.4% | Relative proliferation proportion of T24 cells (RAG1-40-31 25 nM + MMC 10 nM): 20.9% | Relative proliferation proportion of T24 cells (RAG1-40-31 25 nM + MMC 100 nM): 12.4% | Relative proliferation proportion of T24 cells (RAG1-40-31 25 nM + MMC 1000 nM): 4.1% | Relative proliferation proportion of T24 cells (RAG1-40-31 25 nM + MMC 10000 nM): 1.9% | Relative proliferation proportion of T24 cells (RAG1-40-31 25 nM + valrubicin 1 nm): 16.5% | Relative proliferation proportion of T24 cells (RAG1-40-31 25 nM + valrubicin 10 nm): 20.4% | Relative proliferation proportion of T24 cells (RAG1-40-31 25 nM + valrubicin 100 nm): 19.5% | Relative proliferation proportion of T24 cells (RAG1-40-31 25 nM + valrubicin 1000 nm): 13.2% | Relative proliferation proportion of T24 cells (RAG1-40-31 25 nM + valrubicin 10000 nm): 3.4% | Relative proliferation proportion of T24 cells (RAG1-40-31 25 nM, Control (no MMC)): 13.6% | Relative proliferation proportion of T24 cells (RAG1-40-31 25 nM, Control (no valrubicin)): 15.1% | Relative proliferation proportion of T24 cells (RAG1-40-31 50 nM + MMC 1 nM): 20.1% | Relative proliferation proportion of T24 cells (RAG1-40-31 50 nM + MMC 10 nM): 19.8% | Relative proliferation proportion of T24 cells (RAG1-40-31 50 nM + MMC 100 nM): 10.8% | Relative proliferation proportion of T24 cells (RAG1-40-31 50 nM + MMC 1000 nM): 4.2% | Relative proliferation proportion of T24 cells (RAG1-40-31 50 nM + MMC 10000 nM): 2.1% | Relative proliferation proportion of T24 cells (RAG1-40-31 50 nM + valrubicin 1 nm): 18.4% | Relative proliferation proportion of T24 cells (RAG1-40-31 50 nM + valrubicin 10 nm): 18.8% | Relative proliferation proportion of T24 cells (RAG1-40-31 50 nM + valrubicin 100 nm): 18.7%
